Test results taken from patent publication US20160145247A1, “Aminomethyl-Biaryl Derivatives Complement Factor D inhibitors and uses thereof” (NOVARTIS AG, priority 2013, published 2016).

The molecules below were run against T1, factor D (Homo sapiens, UniProt P00746) (assay: factor D inhibition assay of Biological Example 2).
T1 construct: made in house; host or cells: E. coli
Type: biochemical

T1 sequence (P00746 26-253): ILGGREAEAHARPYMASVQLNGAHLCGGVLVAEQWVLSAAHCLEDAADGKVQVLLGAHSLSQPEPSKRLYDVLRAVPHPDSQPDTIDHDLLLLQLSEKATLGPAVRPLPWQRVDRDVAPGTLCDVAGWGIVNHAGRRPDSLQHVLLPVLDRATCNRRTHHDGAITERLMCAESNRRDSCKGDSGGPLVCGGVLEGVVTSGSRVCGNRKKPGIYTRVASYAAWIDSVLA

First: CCC[C@@H](N)c1cccc(-c2cccc(COc3ccccc3CC(=O)O)c2)c1F [Example 195-B, (R)-2-(2-((3′-(1-Aminobutyl)-2′-fluoro-[1,1′-biphenyl]-3-yl)methoxy)phenyl)acetic acid]
Second: CCC[C@@H](N)c1cccc(-c2cc(COc3ccccc3CC(=O)O)cc(-c3ccccc3)c2)c1F [Example 200-B, (R)-2-(2-((3-(1-aminobutyl)-2-fluoro-[1,1′:3′,1″-terphenyl]-5′-yl)methoxy)phenyl)acetic acid]
The IC50 of the first is 4.9-fold higher: 107 nM for the first, 22 nM for the second.

Going from `CC(O)c1cc(COc2ccccc2CC(=O)O)cc(-c2cccc([C@H](N)CO)c2)c1` (single isomer, unassigned) [116-E b) (tr = 5.7 min)] to `CCc1cc(COc2ccccc2CC(=O)O)cc(-c2cccc([C@H](N)CO)c2)c1` [Example 110-C, (S)-2-(2-((3′-(1-Amino-2-hydroxyethyl)-5-ethyl-[1,1′-biphenyl]-3-yl)methoxy)phenyl)acetic acid], the IC50 rises from 13 nM to 30 nM (2.3-fold).

Compared with `CNc1sc(-c2cc(F)cc(CN)c2)nc1C(=O)Nc1cc(C)ccc1CC(=O)O` [Example 34-C, 2-(2-(2-(3-(Aminomethyl)-5-fluorophenyl)-5-(methylamino)thiazole-4-carboxamido)-4-methylphenyl)acetic acid], `NCc1cc(F)cc(-c2nc(C(=O)Nc3ccccc3CC(=O)O)c(C3CC3)s2)c1` [Example 35-B, 2-(2-(2-(3-(Aminomethyl)-5-fluorophenyl)-5-cyclopropylthiazole-4-carboxamido)phenyl)acetic acid] is 2.6-fold higher in IC50: 5 nM for the first, 13 nM for the second. The first is the more potent here.

Going from `C[C@@H](N)c1cccc(-c2cc(COc3ccccc3CC(=O)O)cc(OCc3nccs3)c2)c1F` [Example 214-B] to `C[C@@H](N)c1cccc(-c2cc(COc3ccccc3CC(=O)O)cc(OCc3ccncn3)c2)c1F` [Example 214-J], the IC50 rises from 5 nM to 9 nM (1.8-fold). The first is the more potent here.

First: C[C@@H](N)c1cccc(-c2cc(NC[C@H]3CCCO3)c3c(c2)C(Oc2ccccc2CC(=O)O)CCC3)c1F (stereo partly shown) [Example 216-Y]
Second: C[C@@H](N)c1cccc(-c2cc(COc3ccccc3CC(=O)O)cc(NC[C@H]3CCCO3)c2)c1F [Example 153, 2-(2-((3′-((R)-1-Aminoethyl)-2′-fluoro-5-((((R)-tetrahydrofuran-2-yl)methyl)amino)-[1,1′-biphenyl]-3-yl)methoxy)phenyl)acetic acid]
The IC50 of the first is 4.8-fold higher: 19 nM for the first, 4 nM for the second. The second is the more potent here.

Going from `N[C@@H](c1cccc(-c2cccc(COc3ccccc3CC(=O)O)c2)c1)C1CC1` [Example 196-G] to `NC(CF)c1cccc(-c2cccc(COc3ccccc3CC(=O)O)c2)c1` (single isomer, unassigned; (+)) [Example 190-B (+), (+)-2-(2-((3′-(1-amino-2-fluoroethyl)-[1, 1′-biphenyl]-3-yl)methoxy)phenyl)acetic acid], the IC50 falls from 1080 nM to 9 nM (120-fold).

`COC(C)c1cc(COc2ccccc2CC(=O)O)cc(-c2cccc([C@@H](C)N)c2)c1` (mixture of isomers) [Example 119-B, 2-(2-((3′-((R)-1-Aminoethyl)-5-(1-methoxyethyl)-[1,1′-biphenyl]-3-yl)methoxy)phenyl)acetic acid (mixture of diastereomers)] and `CCOc1cc(COc2ccccc2CC(=O)O)cc(-c2cccc([C@@H](C)N)c2)c1` [Example 257, (R)-2-(2-((3′-(1-aminoethyl)-5-ethoxy-[1,1′-biphenyl]-3-yl)methoxy)phenyl)acetic acid] are within 1.5-fold of each other in IC50: 13 nM for the first, 9 nM for the second.

First: NCc1cc(F)cc(-c2cccc(C(=O)Nc3cccc(Br)c3CC(=O)O)c2)c1 [Example 21-G]
Second: CCc1ccc(NC(=O)c2cccc(-c3cc(F)cc(CN)c3)n2)c(CC(=O)O)c1 [Example 21-L]
The IC50 of the first is 73-fold higher: 7680 nM for the first, 105 nM for the second. The second is the more potent here.

Going from `NCc1cccc(-c2c[nH]c(C(=O)Nc3ccccc3CC(=O)O)n2)c1` [Example 47, 2-(2-(4-(3-(Aminomethyl)phenyl)-1H-imidazole-2-carboxamido)phenyl)acetic acid] to `NCc1cccc(-c2cc(NCC(F)(F)F)cc(C(=O)Nc3ccccc3CC(=O)O)n2)c1` [Example 54, 2-(2-(6-(3-(Aminomethyl)phenyl)-4-((2,2,2-trifluoroethyl)amino)picolinamido)phenyl)acetic acid], the IC50 falls from 1930 nM to 3 nM (640-fold). The second is the more potent here.

Going from `NCc1nccc(-c2cccc(COc3ccccc3CC(=O)O)c2)c1F` [Example 142-I] to `NCc1cccc(-c2cccc(COc3ccccc3CC(=O)O)c2)n1` [Example 138-N], the IC50 rises from 2 nM to 28 nM (14-fold). The first is the more potent here.

Compared with `NCc1cc(F)cc(-c2csc(C(=O)Nc3ccccc3CC(=O)O)n2)c1` [Example 28-B, 2-(2-(4-(3-(aminomethyl)-5-fluorophenyl)thiazole-2-carboxamido)phenyl)acetic acid], `Cn1nc(C2CC2)cc1Nc1cc(C(=O)Nc2ccccc2CC(=O)O)cc(-c2cc(F)cc(CN)c2)c1` [Example 78-B, 2-(2-(3′-(Aminomethyl)-5-((3-cyclopropyl-1-methyl-1H-pyrazol-5-yl)amino)-5′-fluoro-[1,1′-biphenyl]-3-ylcarboxamido)phenyl)acetic acid] is 2.6-fold lower in IC50: 57 nM for the first, 22 nM for the second. The second is the more potent here.

Compared with `Cn1ccc(COc2cc(C(=O)Nc3ccccc3CC(=O)O)cc(-c3cccc(CN)c3)c2)n1` [Example 66, 2-(2-(3′-(Aminomethyl)-5-((1-methyl-1H-pyrazol-3-yl)methoxy)-[1,1′-biphenyl]-3-ylcarboxamido)phenyl)acetic acid], `NCc1cccc(-c2cc(C(=O)Nc3ccccc3CC(=O)O)nc(-c3cccc(CN)c3)c2)c1` [Example 42, 2-(2-(4,6-bis(3-(Aminomethyl)phenyl)picolinamido)phenyl)acetic acid] is 2.5-fold lower in IC50: 33 nM for the first, 13 nM for the second. The second is the more potent here.

Compared with `Cc1c(COc2ccccc2CC(=O)O)cccc1-c1cccc([C@H](N)CO)c1` [Example 116-L], `N#CC[C@@H](N)c1cccc(-c2cccc(COc3ccccc3CC(=O)O)c2)c1` [Example 196-E] is 38-fold lower in IC50: 10300 nM for the first, 272 nM for the second.

Compared with `C[C@@H](N)c1cccc(-c2cc(COc3ccccc3CC(=O)O)cc(OCC3CCCC3)c2)c1F` [Example 214-H], `C[C@@H](N)c1cccc(-c2cc(COc3ccccc3CC(=O)O)cc(OC[C@H]3CCCO3)c2)c1F` [Example 232, 2-(2-((3′-((R)-1-aminoethyl)-2′-fluoro-5-(((R)-tetrahydrofuran-2-yl)methoxy)-[1,1′-biphenyl]-3-yl)methoxy)phenyl)acetic acid] is 350-fold lower in IC50: 700 nM for the first, 2 nM for the second.

Compared with `Cc1cc(COc2ccccc2CC(=O)O)cc(-c2cccc([C@@H](C)N)c2F)c1` [Example 210-C, (R)-2-(2-((3′-(1-aminoethyl)-2′-fluoro-5-methyl-[1,1′-biphenyl]-3-yl)methoxy)phenyl)acetic acid], `C[C@@H](N)c1cccc(-c2cc(COc3ccccc3CC(=O)O)cc(C(=O)N(C)C)c2)c1F` [Example 216-R] is 12-fold higher in IC50: 12 nM for the first, 147 nM for the second. The first is the more potent here.

First: COCCn1cc(-c2cc(COc3ccccc3CC(=O)O)cc(-c3cccc(CN)c3)c2)cn1 [Example 209-E]
Second: NCc1cccc(-c2cc(CCO)cc(COc3ccccc3CC(=O)O)c2)c1 [Example 105-C, 2-(2-((3′-(Aminomethyl)-5-(2-hydroxyethyl)-[1,1′-biphenyl]-3-yl)methoxy)phenyl)acetic acid]
The IC50 of the first is 3-fold lower: 5 nM for the first, 15 nM for the second.

Compared with `C[C@@H](N)c1cccc(-c2cc(COc3ccccc3CC(=O)O)cc(CN3CCOCC3)c2)c1F` [Example 216-AE], `C[C@@H](N)c1cccc(-c2cc(COc3ccccc3CC(=O)O)cc(OCCN3CCOCC3)c2)c1F` [Example 214-A] is 5.3-fold lower in IC50: 53 nM for the first, 10 nM for the second.

Going from `CNC(=O)c1cc(COc2cc(C(=O)Nc3ccccc3CC(=O)O)cc(-c3cc(F)cc(CN)c3)c2)ccn1` [Example 71, 2-(2-(3′-(Aminomethyl)-5′-fluoro-5-((2-(methylcarbamoyl)pyridin-4-yl)methoxy)-[1,1′-biphenyl]-3-ylcarboxamido)phenyl)acetic acid] to `N[C@H](CO)c1cccc(-c2cc(C(=O)Nc3ccccc3CC(=O)O)cc(-c3cccc([C@H](N)CO)c3)c2)c1` [Example 82-B, 2-(2-(3,3″-bis((S)-1-amino-2-hydroxyethyl)-[1,1′:3′,1″-terphenyl]-5′-ylcarboxamido)phenyl)acetic acid], the IC50 rises from 9 nM to 19 nM (2.1-fold).

First: NCc1cccc(-c2cc(COc3ccccc3CC(=O)O)cc(OC[C@H]3CCCO3)c2)c1F [Example 234-B, (R)-2-(2-((3′-(aminomethyl)-2′-fluoro-5-((tetrahydrofuran-2-yl)methoxy)-[1,1′-biphenyl]-3-yl)methoxy)phenyl)acetic acid]
Second: C[C@H](N)c1cccc(-c2cc(COc3ccccc3CC(=O)O)cc(OCC3(C)CC3)c2)c1F [Example 260, (S)-2-(2-((3′-(1-aminoethyl)-2′-fluoro-5-((1-methylcyclopropyl)methoxy)-[1,1′-biphenyl]-3-yl)methoxy)phenyl)acetic acid]
The IC50 of the first is 9.8-fold lower: 4 nM for the first, 39 nM for the second. The first is the more potent here.

`CN(C)C(c1cc(COc2ccccc2CC(=O)O)cc(-c2cccc(CN)c2)c1)C(F)(F)F` (stereo not shown) [Example 208-B] and `N[C@H](CO)c1cccc(-c2cc(COc3ccccc3CC(=O)O)cc(C(O)C3CCCCC3)c2)c1` (single isomer, unassigned) [116-I b) (tr = 6.3 min)] are within 1.5-fold of each other in IC50: 27 nM for the first, 24 nM for the second.

Going from `C[C@@H](N)c1cccc(-c2cc(COc3ccccc3CC(=O)O)cc(NCc3ccccn3)c2)c1F` [Example 216-T] to `C[C@@H](N)c1cccc(-c2ccc(C3CC3)c(COc3ccccc3CC(=O)O)c2)c1F` [Example 280, (R)-2-(2-((3′-(1-aminoethyl)-4-cyclopropyl-2′-fluoro-[1,1′-biphenyl]-3-yl)methoxy)phenyl)acetic acid], the IC50 falls from 9 nM to 6 nM (1.5-fold). The second is the more potent here.

Going from `NCc1cccc(-c2cc(COc3ccccc3CC(=O)O)ccc2F)c1F` [Example 137, 2-(2-((3′-(Aminomethyl)-2′,6-difluoro-[1,1′-biphenyl]-3-yl)methoxy)phenyl)acetic acid] to `C[C@@H](N)c1cccc(-c2ccc3c(c2)N(Cc2ccccc2CC(=O)O)CCC3)c1F` [Example 219-D, (R)-2-(2-((7-(3-(1-Aminoethyl)-2-fluorophenyl)-3,4-dihydroquinolin-1(2H)-yl)methyl)phenyl)acetic acid], the IC50 rises from 21 nM to 61 nM (2.9-fold). The first is the more potent here.

Compared with `C[C@@H](N)c1cccc(-c2cc(COc3ccccc3CC(=O)O)cc(COC3CCOc4ccc(Cl)cc43)c2)c1` (stereo partly shown) [Example 120-T], `Cc1ccc(S(=O)(=O)n2ncc3c(COc4ccccc4CC(=O)O)cc(-c4cccc(CN)c4)cc32)cc1` [Example 178, 2-(2-((6-(3-(Aminomethyl)phenyl)-1-tosyl-1H-indazol-4-yl)methoxy)phenyl)acetic acid] is 4-fold lower in IC50: 8 nM for the first, 2 nM for the second. The second is the more potent here.
